Measurements from US20240002391A1, “4-ALKOXYPYRROLO[2,1-F][1,2,4]TRIAZINES AND PREPARATION AND USES THEREOF” (BioSplice Therapeutics, Inc., priority 2022, published 2024).
pIC50: −log10 of the molar value.

The molecules below were run against recombinant DYRK1A kinase (Homo sapiens (Human), UniProt Q13627) (assay: DYRK1A kinase assay (Ser/Thr 18 peptide Z-lyte FRET)). Settings: DYRK1A kinase activity, Z-lyte Ser/Thr 18 peptide, 15 μM ATP; method text calls the value IC50; read-out: EC50 (the source's name).
Assay type: biochemical
Method: Representative compounds were screened using the assay procedure for DYRK1A kinase activity as described below.
Each compound was dissolved in DMSO as a 10 mM stock and used to prepare compound source plates. Serial dilution (1:3, 11-point dose-response curves from 10 μM to 0.00016 μM) and compound transfer was performed using the ECHO 550 (Labcyte, Sunnyvale, CA) into 1536-well black-walled round bottom plates (Coming).
The DYRK1A kinase assay was run using the Ser/Thr 18 peptide Z-lyte assay kit according to manufacturer's instructions (Life Technologies-a Division of Thermo-Fisher). This is a non-radioactive assay using fluorescence resonance energy transfer (FRET) between coumarin and fluorescein to detect kinase activity which is represented as a ratio of coumarin emission/fluorescein emission.
Briefly, recombinant DYRK1A kinase, ATP and Ser/Thr peptide 18 were prepared in 1X Kinase buffer to final concentrations of 0.25 μg/mL, 15 μM, and 4 μM respectively. The mixture was allowed to incubate with the representative compounds for one hour at room temperature. All reactions were performed in duplicate. Unphosphorylated (“0% Control”) and phosphorylated (“100% control”) forms of Ser/Thr 18 served as control reactions. Additionally, an 11-point dose-response curve of Staurosporine (luM top) was run to serve as a positive compound control.
After incubation, Development Reagent A was diluted in Development Buffer then added to the reaction and allowed to further incubate for one hour at room temperature. The plate was read at Ex 400 Em 455 to detect the coumarin signal and Ex 400 Em 520 to measure the signal (EnVision Multilabel Plate Reader, PerkinElmer).
The Emission ratio (Em) was calculated as a ratio of the coumarin (C) emission signal (at 445 nm)/Fluorescein (F) emission signal (at 520 nm). The percent phosphorylation was then calculated using the following formula: [1−((Em ratio X F100%)-C100%)/((C0%-C100%) +(Em ratio X (F100%−F0%)))]. Dose-response curves were generated, and inhibitory concentration (IC50) values were calculated using non-linear regression curve fit in the Dotmatics' Studies Software (Bishops Stortford, UK).

Row | Structure (SMILES) | pIC50
1 | COc1nc(N[C@H]2C[C@@](C)(O)C2)nn2ccc(-c3ccc4nc(C)n(CCO)c4c3)c12 [Compound 169, cis-3-((5-(1-(2-Hydroxyethyl)-2-methyl-1H-benzo[d]imidazol-6-yl)-4-methoxypyrrolo[2,1-f][1,2,4]triazin-2-yl)amino)-1-methylcyclobutan-1-ol] | 8.68
2 | COc1nc(N[C@H](C)c2ccccn2)nn2ccc(-c3ccn4nccc4c3)c12 [Compound 93, (R)-4-Methoxy-5-(pyrazolo[1,5-a]pyridin-5-yl)-N-(1-(pyridin-2-yl)ethyl)pyrrolo[2,1-f][1,2,4]triazin-2-amine] | 6.71
3 | Oc1nc(N[C@@H]2CN(C3COC3)C[C@@H]2F)nn2ccc(-c3cnc4nccn4c3)c12 [Compound 265, 2-(((3R,4S)-4-fluoro-1-(oxetan-3-yl)pyrrolidin-3-yl)amino)-5-(imidazo[1,2-a]pyrimidin-6-yl)pyrrolo[2,1-f][1,2,4]triazin-4-ol] | 7.23
4 | COc1nc(N[C@H]2CCN(CCF)C[C@H]2F)nn2ccc(-c3ccc4nccnc4c3)c12 [Compound 372, N-((3R,4S)-3-Fluoro-1-(2-fluoroethyl)piperidin-4-yl)-4-methoxy-5-(quinoxalin-6-yl)pyrrolo[2,1-f][1,2,4]triazin-2-amine] | 8.39
5 | COc1nc(NC23CC(NC(C)=O)(C2)C3)nn2ccc(-c3ccc4nccnc4c3)c12 [Compound 382, N-(3-((4-Methoxy-5-(quinoxalin-6-yl)pyrrolo[2,1-f][1,2,4]triazin-2-yl)amino)bicyclo[1.1.1]pentan-1-yl)acetamide] | 8.74
6 | COc1nc(NC2CCN(C(C)=O)CC2)nn2ccc(-c3ccc4nccn4c3)c12 [Compound 63, 1-(4-((5-(Imidazo[1,2-a]pyridin-6-yl)-4-methoxypyrrolo[2,1-f][1,2,4]triazin-2-yl)amino)piperidin-1-yl)ethan-1-one] | 8.34

The next lines start with the values.

Row | pIC50 | Structure (SMILES)
7 | 8.19 | CCN1CC[C@@H](Nc2nc(OC)c3c(-c4ccc5ncnn5c4)ccn3n2)C(F)(F)C1 [Compound 577, (R)-5-([1,2,4]Triazolo[1,5-a]pyridin-6-yl)-N-(1-ethyl-3,3-difluoropiperidin-4-yl)-4-methoxypyrrolo[2,1-f][1,2,4]triazin-2-amine]
8 | 8.74 | CCC(=O)N1CC[C@H](Nc2nc(OC)c3c(-c4ccc5nnn(CCF)c5c4)ccn3n2)[C@H](F)C1 [Compound 1143, 1-((3R,4S)-3-Fluoro-4-((5-(1-(2-fluoroethyl)-1H-benzo[d][1,2,3]triazol-6-yl)-4-methoxypyrrolo[2,1-f][1,2,4]triazin-2-yl)amino)piperidin-1-yl)propan-1-one]
9 | 9.22 | COc1nc(N[C@H]2CC[C@](C)(O)CC2)nn2ccc(-c3ccc4nnn(CC(F)F)c4c3)c12 [Compound 725, (1r,4r)-4-((5-(1-(2,2-difluoroethyl)-1H-benzo[d][1,2,3]triazol-6-yl)-4-methoxypyrrolo[2,1-f][1,2,4]triazin-2-yl)amino)-1-methylcyclohexan-1-ol]
10 | 8.42 | COc1nc(N[C@H]2CN(C3COC3)C[C@H]2F)nn2ccc(-c3ccc4nc(C)n(CC(F)F)c4c3)c12 [Compound 505, 5-(1-(2,2-Difluoroethyl)-2-methyl-1H-benzo[d]imidazol-6-yl)-N-((3S,4R)-4-fluoro-1-(oxetan-3-yl)pyrrolidin-3-yl)-4-methoxypyrrolo[2,1-f][1,2,4]triazin-2-amine]
11 | 8.68 | COc1nc(NCC(C)(C)F)nn2ccc(-c3cnc4nccn4c3)c12 [Compound 924, N-(2-Fluoro-2-methylpropyl)-5-(imidazo[1,2-a]pyrimidin-6-yl)-4-methoxypyrrolo[2,1-f][1,2,4]triazin-2-amine]
12 | 8.14 | C[C@]1(O)C[C@H](Nc2nc(OC3COC3)c3c(-c4ccc5nccnc5c4)ccn3n2)C1 [Compound 391, cis-1-Methyl-3-((4-(oxetan-3-yloxy)-5-(quinoxalin-6-yl)pyrrolo[2,1-f][1,2,4]triazin-2-yl)amino)cyclobutan-1-ol]
